Data set [1] is described as follows: Safety (TRAEs/TEAEs), CC-90010-GBM-002 Parts A and B. It is filed as in vivo. From the text: This was then followed by a break in treatment therapy, e.g., from 1 to up to 4 weeks. […] Adjuvant therapy cycles were repeated from 2 to 6 times. After adjuvant therapy, was a monotherapy treatment.
The demographics and characteristics of treated patients are described in the below table.

The conditions of data set [2]: cited from earlier work.
In another data set the test system is glioblastoma. As to conditions: in vivo; cited from earlier work.

These results are taken from US20230141718A1, “METHODS OF TREATING GLIOBLASTOMA” (CELGENE QUANTICEL RESEARCH, INC., priority 2021, published 2023).

As to `Cn1nnc2c(C(N)=O)ncn2c1=O` [TMZ, 3,4-dihydro-3-methyl-4-oxoimidazo[5,1-d]-as-tetrazine-8-carboxamide, reference compound], in data set [1] (Part B arm A), the “patients with TRAEs related to TMZ” value is reported as 75%, the “patients with nausea related to TMZ” value is 46% and the “patients with thrombocytopenia related to TMZ” value is given as 46%. Further, in data set [1] (Part B arm B), the “patients with TRAEs related to TMZ” value was determined as 73% and the “patients with thrombocytopenia related to TMZ” value was found to be 40%.

As for `O=C(c1cc(Cc2n[nH]c(=O)c3ccccc23)ccc1F)N1CCN(C(=O)C2CC2)CC1` [olaparib], the “tissue:plasma ratio, mean” value in data set [2] (brain tumor tissue) is 0.25.

Turning to `C#Cc1cccc(Nc2ncnc3cc(OCCOC)c(OCCOC)cc23)c1` [erlotinib], in data set [2] (brain tumor tissue), the “tissue:plasma ratio” value is listed as 0.06-0.08.

For the molecule `CS(=O)(=O)CCNCc1ccc(-c2ccc3ncnc(Nc4ccc(OCc5cccc(F)c5)c(Cl)c4)c3c2)o1` [lapatinib], the “tissue:plasma ratio, mean” value in data set [2] (brain tumor tissue) is listed as 13.0. Further, in the data set with glioblastoma, the “antitumor activity in glioblastoma” value is “neither lapatinib nor gefitinib have shown evidence of antitumor activity”.

On to `COc1cc2ncnc(Nc3ccc(F)c(Cl)c3)c2cc1OCCCN1CCOCC1` [gefitinib], for which the “median concentration in tumor tissue” value in data set [2] (glioblastoma tumor tissue) was 4100 ng/g. In data set [2] (in vivo), the “median concentration in plasma” value is 181 ng/mL. Also, the “antitumor activity in glioblastoma” value in the data set with glioblastoma was “neither lapatinib nor gefitinib have shown evidence of antitumor activity”.
